Literature values in PMC8609999, “A Phase I trial of talazoparib in patients with advanced hematologic malignancies” (International Journal of Hematologic Oncology, 2021).

Test system: CLL or MCL patients
Set-up: method as in PMID 28643365
Settings: not statistically significant; cited from earlier work

O=C(c1cc(Cc2n[nH]c(=O)c3ccccc23)ccc1F)N1CCN(C(=O)C2CC2)CC1 [olaparib]
Overall survival in patients with ATM mutations versus those without: trend towards improved overall survival
